Source: paper PMC11700842 (The Journal of Antibiotics, 2024)
Converted amounts (≈) assume the structure as drawn. Read-outs that look alike come from different tables or passages of the source.

Tests used:
[1] = test system: M. bovis BCG membrane electric potential; format: cell-based
M. smegmatis [2] = experiment: MIC determination (resazurin) against M. smegmatis; format: cell-based, M. smegmatis mc^2155; details: Mycolicibacterium smegmatis; lowest concentration reducing growth to 1% or less; 21 h + 3 h resazurin; N = 3
E. faecium E745 = experiment: microbe, parasite or virus in culture; format: cell-based; details: Enterococcus faecium, E745, 24 h, read-out: MIC99 E. faecium E745
M. smegmatis [3] = experiment: Ethidium bromide accumulation assay in M. smegmatis; format: cell-based; details: analogues 100 µM, verapamil 102 µM, with glucose; for % Change in fluorescence (accumulation): end of 60 min assay; for Rate of accumulation (ethidium bromide): rate from 5–14 minutes
M. smegmatis [4] = experiment: Ethidium bromide efflux assay in M. smegmatis; format: cell-based; details: for % Change in fluorescence (efflux) / Rate of efflux (ethidium bromide): analogues 100 µM, verapamil 102 µM, with glucose; for % Change in fluorescence (efflux): end of 60 min assay; for Rate of efflux (ethidium bromide): rate from 0–9 minutes
M. bovis BCG [5] = format: cell-based; details: analogues 100 µM, verapamil 102 µM, with glucose; for % Change in fluorescence (accumulation): end of 60 min assay; for Rate of accumulation (ethidium bromide): rate from 5–14 minutes
M. bovis BCG [6] = format: cell-based; details: analogues 100 µM, verapamil 102 µM, with glucose; for % Change in fluorescence (efflux): end of 60 min assay; for Rate of efflux (ethidium bromide): rate from 0–9 minutes
[7] = target: T1, human dopamine transporter (Homo sapiens, UniProt Q01959); experiment: cell-based; format: cell-based; details: for IC50: CHO cells transfected with human dopamine transporter, 0.3 µM [3H] dopamine, 90 min, read-out: IC50 against dopamine transporter; for IC50 / inhibition at 0.1 µM: N = 3; for inhibition at 0.1 µM: CHO, dopamine transporter uptake, 100 nM
T1 construct: host or cells: Chinese hamster ovary (CHO) cells
Method: This assay was performed by Eurofins Discovery and is based on a reported method. […] Following incubation, the amount of [^3H] dopamine was quantified using a scintillation counter (Topcount, Packard). The results were expressed as a percentage inhibition relative to the control uptake of [^3H] dopamine.
In this assay, five concentrations of each analogue were tested, in triplicate, ranging from 10 µM to 100 nM (Supplementary Fig. S2).
26 Supplementary Figure S2: Dopamine transporter uptake assays monitoring
The uptake of [3H] dopamine into Chinese
28 hamster ovary cells, transfected with the human dopamine transporter, was used to […]

dopamine transporter [8] = format: cell-based; details: based on IC50 from Paudel et al.
dopamine transporter [9] = test system: dopamine transporter; set-up: method as in PMID 28274674; details: human embryonic kidney 293 cells; 20 nM [3H] dopamine over 5 min at 37 °C; read-out: IC50 against the dopamine transporter; cited from earlier work
Streptococcus pneumoniae = test system: Streptococcus pneumoniae; set-up: method as in PMID 36982905; details: cited from earlier work
[10] = three patients with structural heart disease; cited from earlier work
[11] = M. bovis BCG, test compounds 100 µM, CCCP 25 µM, Fig. 3

T1 sequence (Q01959 whole entry): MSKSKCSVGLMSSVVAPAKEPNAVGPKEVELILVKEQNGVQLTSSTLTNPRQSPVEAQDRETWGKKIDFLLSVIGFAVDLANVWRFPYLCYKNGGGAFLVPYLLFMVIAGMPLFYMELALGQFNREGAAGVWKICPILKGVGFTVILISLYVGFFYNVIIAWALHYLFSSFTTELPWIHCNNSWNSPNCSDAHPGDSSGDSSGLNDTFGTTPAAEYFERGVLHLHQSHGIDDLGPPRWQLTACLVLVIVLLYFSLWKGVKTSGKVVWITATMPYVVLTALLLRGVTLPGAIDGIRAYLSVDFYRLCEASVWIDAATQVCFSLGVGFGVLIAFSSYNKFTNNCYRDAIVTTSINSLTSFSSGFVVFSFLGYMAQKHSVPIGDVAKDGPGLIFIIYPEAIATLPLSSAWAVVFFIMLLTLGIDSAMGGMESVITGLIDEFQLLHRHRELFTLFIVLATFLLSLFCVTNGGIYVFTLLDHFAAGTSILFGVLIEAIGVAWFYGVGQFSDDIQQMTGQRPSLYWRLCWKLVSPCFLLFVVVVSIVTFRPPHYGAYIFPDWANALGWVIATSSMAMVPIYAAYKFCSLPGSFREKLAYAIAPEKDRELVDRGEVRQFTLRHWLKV

SMILES	impact on membrane electric potential (in words) [1]	MIC99 (M. smegmatis [2]) [µM]	MIC99 (E. faecium E745) [µM]	% Change in fluorescence (accumulation) (M. smegmatis [3]) [%]	Rate of accumulation (ethidium bromide) (M. smegmatis [3]) [RFUs/min]	% Change in fluorescence (efflux) (M. smegmatis [4])	Rate of efflux (ethidium bromide) (M. smegmatis [4])	% Change in fluorescence (accumulation) (M. bovis BCG [5]) [%]	Rate of accumulation (ethidium bromide) (M. bovis BCG [5]) [RFUs/min]	% Change in fluorescence (efflux) (M. bovis BCG [6])	Rate of efflux (ethidium bromide) (M. bovis BCG [6])	impact on membrane electric potential (in words) [1, 11]	IC50 [7] [nM]	inhibition at 0.1 µM [7] [%]	difference between MIC99 against M. bovis BCG and IC50 against the dopamine transporter ([7]; based on data of this study) [×]	difference between MIC99 against M. bovis BCG and IC50 against the dopamine transporter (dopamine transporter [8]) [×]	IC50 (dopamine transporter [9]) [nM]	effect on ethidium bromide efflux (in words) (M. smegmatis [4]; 100 µM)	activity against Streptococcus pneumoniae (in words) (Streptococcus pneumoniae)	adverse cardiac event in phase III clinical trial [10]
N#CC(C#N)=NNc1cccc(Cl)c1 [CCCP, Carbonyl cyanide m-chlorophenyl hydrazone, reference compound]	greatest loss of electric potential																			
Fc1ccc(C(OCCN2CCC(Cc3ccccc3)CC2)c2ccc(F)cc2)cc1 [Compound 3]		50	25 (≈ 10.5 µg/mL)	286 ± 1	3000 ± 100	–11 ± 0.1%	–1400 ± 200 RFUs/min	67 ± 1	480 ± 300	–18 ± 6%	–1300 ± 200 RFUs/min	greater impact than vanoxerine	140	35.8	179	3.7	6800			
Fc1ccc(C(OCCN2CCNCC2)c2ccc(F)cc2)cc1 [Compound 4]		> 100	> 100	57 ± 6	2700 ± 310	–57 ± 0.1%	–4500 ± 400 RFUs/min	46 ± 2	800 ± 2000	–16 ± 0.4%	–1000 ± 800 RFUs/min									
Fc1ccc(CN2CCN(CCOC(c3ccc(F)cc3)c3ccc(F)cc3)CC2)cc1 [Compound 5]		> 100	> 100	175 ± 4	1300 ± 20	–25 ± 0.2%	–1700 ± 200 RFUs/min	39 ± 1	130 ± 130	–20 ± 0.02%	–1500 ± 50 RFUs/min									
Oc1ccc(CN2CCN(CCOC(c3ccc(F)cc3)c3ccc(F)cc3)CC2)cc1 [Compound 6]		> 100	> 100	75 ± 2	1100 ± 40	–49 ± 0.3%	–2500 ± 200 RFUs/min	36 ± 3	140 ± 480	–21 ± 0.2%	–1400 ± 330 RFUs/min									
Fc1ccc(C(OCCN2CCN(CC3CCCCC3)CC2)c2ccc(F)cc2)cc1 [Compound 7]		100	100 (≈ 42.9 µg/mL)	94 ± 2	1000 ± 16	–43 ± 0.2%	–2200 ± 60 RFUs/min	32 ± 1	120 ± 90	–21 ± 0.1%	–1600 ± 100 RFUs/min									
O=C(c1ccccc1)N1CCN(CCOC(c2ccc(F)cc2)c2ccc(F)cc2)CC1 [Compound 8]		> 100	> 100	37 ± 2	600 ± 30	–63 ± 0.1%	–4300 ± 400 RFUs/min	26 ± 2	120 ± 460	–26 ± 0.2%	–1799 ± 400 RFUs/min									
OC(CCN1CCN(CCOC(c2ccc(F)cc2)c2ccc(F)cc2)CC1)c1ccccc1 (stereo not drawn) [Compound 9]		100	> 100	349 ± 1	4500 ± 40	–11 ± 0.1%	–1100 ± 110 RFUs/min	68 ± 1	1100 ± 1000	–16 ± 0.4%	–1200 ± 600 RFUs/min	greater impact than vanoxerine	< 100	98.2						
C#CCOC(CCN1CCN(CCOC(c2ccc(F)cc2)c2ccc(F)cc2)CC1)c1ccccc1 (stereo not drawn) [Compound 10]		100	> 100	323 ± 7	4500 ± 260	–13 ± 0.1%	–1200 ± 200 RFUs/min	66 ± 1	1200 ± 700	–13 ± 0.3%	–940 ± 700 RFUs/min	greater impact than vanoxerine	< 100	95						
CCCCCCCCCC(=O)OC(CCN1CCN(CCOC(c2ccc(F)cc2)c2ccc(F)cc2)CC1)c1ccccc1 (stereo not drawn) [Compound 11]		> 100	> 100	39 ± 2	1000 ± 160	–59 ± 0.1%	–5600 ± 160 RFUs/min	45 ± 1	400 ± 300	–28 ± 25%	–1900 ± 400 RFUs/min	no impact on the electric potential						no effect on ethidium bromide efflux		
c1ccc(CCCN2CCN(CCOC(c3ccccc3)c3ccccc3)CC2)cc1 [GBR12935, 1-[2-(Diphenylmethoxy)ethyl]-4-(3-phenylpropyl)piperazine, reference compound]		100	> 100	90 ± 3	1100 ± 40	–37 ± 0.2%	–2000 ± 100 RFUs/min	34 ± 2	160 ± 240	–16 ± 0.1%	–1300 ± 150 RFUs/min									
Fc1ccc(C(OCCN2CCN(CCCc3ccccc3)CC2)c2ccc(F)cc2)cc1 [vanoxerine, 1-[2-[Bis(4-fluorophenyl)methoxy]ethyl]-4-(3-phenylpropyl)piperazine, reference compound]		50	44 (≈ 19.8 µg/mL)	299 ± 3	3000 ± 130	–11 ± 0.5%	–1100 ± 500 RFUs/min	48 ± 3	490 ± 800	–15 ± 1%	–1100 ± 950 RFUs/min						[…]		inhibited Streptococcus pneumoniae	caused ventricular pro-arrhythmia
COc1ccc(CCN(C)CCCC(C#N)(c2ccc(OC)c(OC)c2)C(C)C)cc1OC (stereo not drawn) [verapamil, reference compound]				210 ± 7	2900 ± 140			52 ± 6	640 ± 1400											
